Source: PMC2430599, “Solution Structure and Sugar-Binding Mechanism of Mouse Latrophilin-1 RBL: a 7TM Receptor-Attached Lectin-Like Domain” (Structure(London, England:1993), 2008)
Numbering of substitutions follows the chain as printed. “And” between values parts separate entries of the source, which are not always exact repeats. Identical values can stand only once.

Key:
[1] = molecular target: T1, RBL domain of mouse Lat-1 (WT) (Mus musculus, UniProt Q80TR1); assay: NMR chemical shift perturbation titration of carbohydrates, wild-type RBL; assay type: binding; conditions: for Kd, WT / Kd: NMR titration, 30°C, 20 mM sodium phosphate pH 7.0, error from curve fitting, NBD = no binding detected (up to 100 mM compound)
T1 construct: Analytical ultracentrifugation experiments on RBL (residues 30–134) and larger constructs indicated a monomer in solution; α-factor signal propeptide (secretion leader) (N, cleaved yes); made in house; host or cells: Pichia pastoris strain X-33
T1 sequence (Q80TR1 30-134): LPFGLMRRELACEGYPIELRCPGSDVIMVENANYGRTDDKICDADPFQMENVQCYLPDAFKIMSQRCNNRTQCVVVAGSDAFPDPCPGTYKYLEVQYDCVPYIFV
Excerpt: (§1) (B) Ligand titrations induced chemical shift perturbations in the NMR spectra as indicated by arrows. (C) The extent of these perturbations was plotted against ligand concentration and fitted to extract equilibrium parameters using the equation Δδ=Δδsat(([P]+[L]+Kd)−([P]+[L]+Kd)^2−4[P][L])/2[P] , where [P] and [L] are protein and ligand concentrations, respectively, Δδ the shift perturbation measured for each titration point and Δδsat the perturbation at saturation. Multiple perturbed resonances can be fitted simultaneously to different Δδsat values for each resonance and a single Kd value. Equilibrium parameters (Ka) measured for different compounds under the same conditions are compared in a logarithmic plot with error bars derived from the fit (D).
We studied the direct interaction of RBL with carbohydrates by monitoring NMR spectral perturbations induced by binding (Figures 1B–1D).
(§2) All experiments were performed at 30°C with home-built spectrometers, with 11.7 T, 14.1 T, 17.6 T, or 22.3 T field strengths. NMR samples consisted of 1–2 mM protein in a 20 mM sodium phosphate buffer (pH 7.0, 2 mM EDTA, 0.1 mM DSS, 0.02% NaN3) in 5% or 100% D2O, unless otherwise noted.

[2] = molecular target: T2, RBL E42A (Mus musculus, UniProt Q80TR1, E42A); assay: NMR titration, RBL E42A mutant; conditions: NBD = no binding detected
T2 construct: Analytical ultracentrifugation experiments on RBL (residues 30–134) and larger constructs indicated a monomer in solution; α-factor signal propeptide (secretion leader) (N, cleaved yes); made in house; host or cells: Pichia pastoris strain X-33
T2 sequence (Q80TR1 30-134 E42A): T1 sequence (Q80TR1 30-134) with E13A
Excerpt: as §1
(§3) We created substitutions in these two residues of RBL and determined carbohydrate affinity by NMR titrations (Table 1).
as §2

[3] = molecular target: T3, RBL K120A (Mus musculus, UniProt Q80TR1, K120A); assay: NMR titration, RBL K120A mutant; conditions: NBD = no binding detected
T3 construct: Analytical ultracentrifugation experiments on RBL (residues 30–134) and larger constructs indicated a monomer in solution; α-factor signal propeptide (secretion leader) (N, cleaved yes); made in house; host or cells: Pichia pastoris strain X-33
T3 sequence (Q80TR1 30-134 K120A): T1 sequence (Q80TR1 30-134) with K91A
Excerpt: as §1, §3, §2

[4] = molecular target: T4, RBL K120R (Mus musculus, UniProt Q80TR1, K120R); assay: NMR titration, RBL K120R mutant; conditions: NBD = no binding detected
T4 construct: Analytical ultracentrifugation experiments on RBL (residues 30–134) and larger constructs indicated a monomer in solution; α-factor signal propeptide (secretion leader) (N, cleaved yes); made in house; host or cells: Pichia pastoris strain X-33
T4 sequence (Q80TR1 30-134 K120R): T1 sequence (Q80TR1 30-134) with K91R
Excerpt: as §1, §3, §2

[5] = molecular target: T5, RBL E42R (Mus musculus, UniProt Q80TR1, E42R); assay: NMR titration, RBL E42R mutant; conditions: NBD = no binding detected
T5 construct: Analytical ultracentrifugation experiments on RBL (residues 30–134) and larger constructs indicated a monomer in solution; α-factor signal propeptide (secretion leader) (N, cleaved yes); made in house; host or cells: Pichia pastoris strain X-33
T5 sequence (Q80TR1 30-134 E42R): T1 sequence (Q80TR1 30-134) with E13R
Excerpt: as §1, §3, §2

[6] = molecular target: SUEL (Heliocidaris crassispina, UniProt P22031); assay: biochemical; assay type: binding, sea urchin
Sequence of SUEL (P22031 whole entry, the tested form may be a part): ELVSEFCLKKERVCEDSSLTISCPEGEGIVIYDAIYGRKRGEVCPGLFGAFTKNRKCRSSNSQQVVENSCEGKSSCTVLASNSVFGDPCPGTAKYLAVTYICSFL

[7] = molecular target: T6, RBL domain of mouse Lat-1 (Mus musculus, UniProt Q80TR1); assay: Printed glycan array chip screen with AlexaFluor 488 labelled RBL (Consortium for Functional Glycomics); assay type: binding
T6 construct: Analytical ultracentrifugation experiments on RBL (residues 30–134) and larger constructs indicated a monomer in solution; α-factor signal propeptide (secretion leader) (N, cleaved yes); made in house; host or cells: Pichia pastoris strain X-33
T6 sequence (Q80TR1 30-134): T1 sequence (Q80TR1 30-134)
Description: RBL extensively dialyzed against PBS was fluorescently labeled with the AlexaFluor 488 protein labeling kit (Invitrogen). After labeling, free dye was removed by gel filtration chromatography, and the labeling efficiency was estimated as 30%. Approximately 0.1 mg of labeled protein was provided to the Consortium for Functional Glycomics (National Institute of General Medical Sciences/National Institutes of Health) for screening in a printed glycan array chip (version 3.0, 320 glycan targets).

| Compound | Kd, WT [1] | Kd [1] | also measured |
| --- | --- | --- | --- |
| OC1OC[C@@H](O)[C@@H](O)[C@@H]1O (stereo partly drawn) [D-arabinose] | NBD | – | – |
| C[C@H]1OC(O)[C@H](O)[C@@H](O)[C@H]1O (stereo partly drawn) [D-fucose] | – | 61 ± 1.3 mM | – |
| OC[C@H]1OC(O)[C@H](O)[C@@H](O)[C@H]1O (stereo partly drawn) [D-galactose] | – | 33.6 ± 0.4 mM | Kd, E42A [2]: NBD; Kd, K120A [3]: NBD; Kd, K120R [4]: NBD; Kd, E42R [5]: NBD |
| OC[C@H]1OC(O)[C@H](O)[C@@H](O)[C@@H]1O (stereo partly drawn) [D-glucose] | NBD | – | – |
| O=C[C@H](O)[C@@H](O)[C@H](O)[C@H](O)C(=O)O [D-glucuronic acid] | NBD | – | – |
| OC[C@H]1OC(O)[C@@H](O)[C@@H](O)[C@@H]1O (stereo partly drawn) [D-mannose] | NBD | – | – |
| O[C@@H]1[C@@H](O)[C@@H](O)CO[C@H]1O [L-arabinose] | – | 75 ± 1.3 mM | – |
| C[C@H](O)[C@@H](O)[C@@H](O)[C@H](O)C=O [L-fucose] | NBD ^c | – | – |
| C[C@@H]1OC(O)[C@H](O)[C@H](O)[C@H]1O (stereo partly drawn) [L-rhamnose] | – | 1.8 mM and 1.78 mM | Kd, E42A [2]: NBD; Kd, K120A [3]: NBD; Kd, K120R [4]: NBD; Kd, E42R [5]: NBD; Kd [6]: 0.1 to 0.2 mM; affinity of SUEL relative to Lat-1 RBL (times tighter) ([6]; SUEL Kd vs Lat-1 RBL Kd 1.8 mM, ref Hosono et al., 1999): 10 |
| OC[C@H]1O[C@H](OCC2O[C@@H](O)[C@H](O)[C@@H](O)[C@@H]2O)[C@H](O)[C@@H](O)[C@H]1O (stereo partly shown) [Melibiose] | – | 33.3 ± 0.5 mM | – |
| CC(=O)N[C@@H]1[C@@H](O)[C@@H](O)[C@@H](CO)O[C@@H]1O [N-acetyl galactosamine] | NBD | – | – |
| CC(=O)N[C@@H]1[C@@H](O)[C@H](O)[C@@H](CO)O[C@H]1O [N-acetyl glucosamine] | NBD | – | – |
| CC(=O)N[C@H]1[C@H]([C@H](O)[C@H](O)CO)OC(O)(C(=O)O)C[C@@H]1O (stereo partly shown) [N-acetyl neuraminic acid] | NBD | – | – |
| C[C@@H]1O[C@@H](O[C@H]2C[C@@H](O)[C@]3(CO)[C@H]4[C@H](O)C[C@]5(C)[C@@H](C6=CC(=O)OC6)CC[C@]5(O)[C@@H]4CC[C@]3(O)C2)[C@H](O)[C@H](O)[C@H]1O [Ouabain] | – | 2.21 ± 0.03 mM | – |
| Galα1-3(Fucα1-2)Galβ1-3GlcNAcβ-Sp0 [glycan #95] | – | – | binding in NMR titration compared to galactose ([1]; NMR titration with glycan as ligand): did not show stronger or altered binding compared to galactose; binding on immobilized glycan array ([7]; fluorescently labeled RBL, glycan array version 3.0, 320 glycan targets, triplicate): any interaction; level of fluorescent signal relative to what is commonly found in this assay ([7]; glycan array version 3.0): approximately 1/20 |
| Heparin | NBD | – | – |
